ChEMBL document CHEMBL1201862, “PubChem BioAssay data set” (2004)
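Protocol summary: plate cells (96-well), add compound at 5 concentrations, incubate 48 h, interpolate endpoints linearly. GI50: concentration for 50% inhibition of growth.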 Calls of active or inactive are those of the source. No stated cut-off is given here; in the data, active = GI50 up to about 1.1 µM and inactive = higher.

Tests used:
Experiment in all cases: NCI tumour cell line growth inhibition, 48 h
OVCAR-3 = tested on: OVCAR-3
SK-MEL-28 = tested on: SK-MEL-28
SNB-75 = tested on: SNB-75
NCI-H460 = tested on: NCI-H460
SF-295 = tested on: SF-295
DMS-273 = tested on: DMS-273
SF-268 = tested on: SF-268
NCI-H522 = tested on: NCI-H522
OVCAR-8 = tested on: OVCAR-8
HT-29 = tested on: HT-29
UACC-62 = tested on: UACC-62
HOP-62 = tested on: HOP-62
SN12C = tested on: SN12C
RXF 631 = tested on: RXF 631
SNB-19 = tested on: SNB-19
SR = tested on: SR
RPMI-8226 = tested on: RPMI-8226
M14 = tested on: M14
KM-20L2 = tested on: KM-20L2
HCT-116 = tested on: HCT-116
HOP-92 = tested on: HOP-92
XF498 = tested on: XF498
SNB-78 = tested on: SNB-78
UO-31 = tested on: UO-31
TK-10 = tested on: TK-10
ACHN = tested on: ACHN
KM12 = tested on: KM12
M19-MEL = tested on: M19-MEL
K562 = tested on: K562
DMS-114 = tested on: DMS-114
786-0 = tested on: 786-0
A498 = tested on: A498
MOLT-4 = tested on: MOLT-4
CAKI-1 = tested on: CAKI-1
LOX IMVI = tested on: LOX IMVI
NCI-H226 = tested on: NCI-H226
Malme-3M = tested on: Malme-3M
SK-OV-3 = tested on: SK-OV-3
SF-539 = tested on: SF-539
NCI-H23 = tested on: NCI-H23
U-251 = tested on: U-251
COLO 205 = tested on: COLO 205
IGROV-1 = tested on: IGROV-1
HL-60 = tested on: HL-60
LXFL 529 = tested on: LXFL 529
HOP-18 = tested on: HOP-18
A549 = tested on: A549
UACC-257 = tested on: UACC-257
SW-620 = tested on: SW-620
SK-MEL-5 = tested on: SK-MEL-5
DLD-1 = tested on: DLD-1
CCRF-CEM = tested on: CCRF-CEM

Measured: GI50

COc1ccc2c(c1)NC1(O)c3ccccc3C(=O)C21O (configuration not stated)
inactive: OVCAR-3 > 100 µM | SK-MEL-28 > 100 µM | SNB-75 > 100 µM | NCI-H460 > 100 µM | SF-295 > 100 µM | DMS-273 > 100 µM | SF-268 > 100 µM | NCI-H522 > 100 µM | OVCAR-8 > 100 µM | HT-29 > 100 µM | UACC-62 > 100 µM | HOP-62 > 100 µM | SN12C > 100 µM | RXF 631 > 100 µM | SNB-19 > 100 µM | SR > 100 µM | RPMI-8226 > 100 µM | M14 > 100 µM | KM-20L2 > 100 µM | HCT-116 > 100 µM | HOP-92 > 100 µM | XF498 25 µM | SNB-78 > 100 µM | UO-31 > 100 µM | TK-10 > 100 µM | ACHN > 100 µM | KM12 > 100 µM | M19-MEL > 100 µM | K562 > 100 µM | DMS-114 > 100 µM | 786-0 > 100 µM | A498 > 100 µM | MOLT-4 > 100 µM | CAKI-1 > 100 µM | LOX IMVI > 100 µM | NCI-H226 > 100 µM | Malme-3M > 100 µM | SK-OV-3 > 100 µM | SF-539 > 100 µM | NCI-H23 > 100 µM | U-251 > 100 µM | COLO 205 > 100 µM | IGROV-1 > 100 µM | HL-60 > 100 µM | LXFL 529 > 100 µM | HOP-18 > 100 µM | A549 > 100 µM | UACC-257 > 100 µM | SW-620 > 100 µM | SK-MEL-5 > 100 µM | DLD-1 > 100 µM | CCRF-CEM > 100 µM
